The source of these data is patent US20220072095A1, “METHODS AND COMPOSITIONS FOR TREATING SKIN DISEASES” (VANDERBILT UNIVERSITY, priority 2018, published 2022).

Series [1] is described as follows: Solubility of NTM peptides. It is filed as physicochemical. Particulars: cSN50: depending on the method of synthesis and purification; read-out: soluble at levels of. As for the experimental part: cSN50.1 is a cyclized peptide having the sequence of cSN50 with the exception that the tyrosine at position 18 of cSN50, adjacent to the first cysteine, has been removed. Methods of making and using cSN50 are described, for example, in U.S. Pat. Nos. 7,553,929 and 6,495,518. The amino acid sequence of cSN50.1 is […] (SEQ ID NO: 2). The tyrosine at position 18 was removed from the sequence of cSN50 to increase solubility. cSN50 is soluble at levels of ranging from 2.0 mg/mL to 40 mg/mL depending on the method of synthesis and purification whereas cSN50.1 is soluble at levels of at least 100 mg/ml. Any mimetics, derivatives, or homologs of cSN50.1 may be used in the compositions, methods, and kits disclosed herein. cSN50.1 is also encompassed by SEQ ID NO: 3, SEQ ID NO: 4 and SEQ ID NO: 5. Additional examples of NTMs include fragment-designed and synthesized peptides in which cargo is incorporated as two, rather than one, modules or cargos derived from intracellular proteins other than NFκB 1. Such additional examples include the sequences of SEQ ID NO: 6, SEQ ID NO: 7, SEQ ID NO: 8, and SEQ ID NO: 9.

Series [2] deals with Imp beta (Homo sapiens, UniProt Q14974). The note with it: cell culture and preclinical studies.
Chain of Imp beta (Q14974 whole entry, looked up): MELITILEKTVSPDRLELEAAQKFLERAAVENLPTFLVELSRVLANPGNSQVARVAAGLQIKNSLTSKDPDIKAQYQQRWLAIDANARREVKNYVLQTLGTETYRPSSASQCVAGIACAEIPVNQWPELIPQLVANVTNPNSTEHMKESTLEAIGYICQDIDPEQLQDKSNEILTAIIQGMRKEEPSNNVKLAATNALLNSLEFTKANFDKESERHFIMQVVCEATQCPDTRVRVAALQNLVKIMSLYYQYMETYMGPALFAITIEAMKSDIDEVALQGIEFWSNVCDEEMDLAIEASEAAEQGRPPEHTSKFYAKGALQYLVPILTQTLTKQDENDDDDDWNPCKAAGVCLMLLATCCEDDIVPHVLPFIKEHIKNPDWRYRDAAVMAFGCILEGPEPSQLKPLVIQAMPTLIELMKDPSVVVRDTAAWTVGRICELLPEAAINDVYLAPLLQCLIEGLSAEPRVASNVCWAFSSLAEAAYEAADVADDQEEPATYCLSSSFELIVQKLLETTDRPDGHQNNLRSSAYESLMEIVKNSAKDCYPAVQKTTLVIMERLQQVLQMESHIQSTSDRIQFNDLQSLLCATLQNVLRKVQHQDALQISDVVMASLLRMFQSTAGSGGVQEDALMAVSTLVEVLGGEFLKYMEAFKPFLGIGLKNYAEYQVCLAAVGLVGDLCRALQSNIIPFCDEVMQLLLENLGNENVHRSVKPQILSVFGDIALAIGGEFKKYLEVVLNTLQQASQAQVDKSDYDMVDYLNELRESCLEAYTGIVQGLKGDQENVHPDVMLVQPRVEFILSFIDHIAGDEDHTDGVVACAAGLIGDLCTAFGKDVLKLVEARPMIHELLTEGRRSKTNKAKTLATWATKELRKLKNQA

In brackets after ≈: the same amount, converted by molar mass. Bridge positions count the residues as written; N and C are the ends. Peptide text beside a SMILES is read from it.

For `CSCC[C@@H]1NC(=O)[C@H](CC(C)C)NC(=O)[C@H](CCCCN)NC(=O)[C@H](CCC(N)=O)NC(=O)[C@H](CCCNC(=N)N)NC(=O)[C@H](CCCCN)NC(=O)[C@H](CCCNC(=N)N)NC(=O)[C@H](CCC(N)=O)NC(=O)[C@H](C(C)C)NC(=O)[C@@H](NC(=O)[C@@H]2CCCN2C(=O)[C@H](C)NC(=O)[C@H](CC(C)C)NC(=O)[C@H](CC(C)C)NC(=O)[C@H](C)NC(=O)[C@H](CC(C)C)NC(=O)[C@H](CC(C)C)NC(=O)[C@@H](NC(=O)[C@H](C)NC(=O)[C@@H]2CCCN2C(=O)[C@H](CC(C)C)NC(=O)[C@H](CC(C)C)NC(=O)[C@H](C)NC(=O)[C@@H](NC(=O)[C@H](C)NC(=O)[C@H](C)N)C(C)C)C(C)C)CSSC[C@@H](C(=O)O)NC(=O)[C@@H]2CCCN2C1=O` [cSN50.1] (H-AAVALLPAVLLALLAPCVQRKRQKLMPC-OH; disulfide 17-28; N-terminus and C-terminus assumed), the solubility in series [1] was no less than 100 mg/mL.
Same read-out and setting: the result for `CSCC[C@@H]1NC(=O)[C@H](CC(C)C)NC(=O)[C@H](CCCCN)NC(=O)[C@H](CCC(N)=O)NC(=O)[C@H](CCCNC(=N)N)NC(=O)[C@H](CCCCN)NC(=O)[C@H](CCCNC(=N)N)NC(=O)[C@H](CCC(N)=O)NC(=O)[C@H](C(C)C)NC(=O)[C@H](Cc2ccc(O)cc2)NC(=O)[C@@H](NC(=O)[C@@H]2CCCN2C(=O)[C@H](C)NC(=O)[C@H](CC(C)C)NC(=O)[C@H](CC(C)C)NC(=O)[C@H](C)NC(=O)[C@H](CC(C)C)NC(=O)[C@H](CC(C)C)NC(=O)[C@@H](NC(=O)[C@H](C)NC(=O)[C@@H]2CCCN2C(=O)[C@H](CC(C)C)NC(=O)[C@H](CC(C)C)NC(=O)[C@H](C)NC(=O)[C@@H](NC(=O)[C@H](C)NC(=O)[C@H](C)N)C(C)C)C(C)C)CSSC[C@@H](C(=O)O)NC(=O)[C@@H]2CCCN2C1=O` [cSN50] (H-AAVALLPAVLLALLAPCYVQRKRQKLMPC-OH; disulfide 17-29; N-terminus and C-terminus assumed) reads 2 to 40 mg/mL (≈ 0.635 to 12.7 mM).
As for AAVALLPAVLLALLAPCVQRDEQKLMPC [cSN50.1β], in series [2], the “importin selectivity (Comments)” value is on record as “Imp beta-selective”.
